{"source": "patent US8003312B2", "about": "“Multiplex cellular assays using detectable cell barcodes” (The Board of Trustees of the Leland Stanford Junior …, priority 2007, dated 2011)", "type_in_all_cases": "cell-based, human", "key": {"[1]": {"tested_on": "Stat1 phosphorylation", "assay": "96-well FCB drug screen in Jurkat cells: Stat1 phosphorylation induced by IFN-γ", "details": "20 μM, 45 min before stimulation with anti-CD3, anti-CD28 and IFN-γ for 5 min", "protocol": "(§1) FIG. 5. Use of FCB in drug screening platforms. […] (a) Layout of screening experiment. Jurkat cells were treated with 70 known small-molecule kinase or phosphatase inhibitors (20 μM), Jak inhibitor I (2 μM) or U0126 (20 μM) for 45 min before stimulation with 5 μg/ml anti-CD3 and anti-CD28 and 10 ng/ml IFN-γ for 5 min. (b) FCB setup for barcoding of 96-well plate. After fixation, cells were barcoded with Alexa 700-NHS (0, 0.06, 0.25 or 1 μg/ml) to delineate the four quadrants of the 96-well plate. Each quadrant was subdivided into four rows labeled with Pacific Blue-NHS (0, 0.04, 0.2 or 1 μg/ml) and six columns labeled with Alexa 488-NHS (0, 0.02, 0.06, 0.18, 0.5 or 1.5 μg/ml). Shown are pseudocolor FACS plots of the actual gating scheme used to deconvolute the samples in quadrant 4, row D (bottom right six samples in the plate). […] Wells with black triangles were excluded from the analysis due to high fluorescence of the drug in the phospho-protein fluorescence channels. Colored squares are drawn over wells analyzed in d. […]\n(§2) Because most cell-based high-throughput screens use 96-well microtiter plates, we next addressed the question whether the technique could be adapted to a 96-well plate. […] We also calculated the Z′ factor from these samples, and it was 0.71 for Stat1 and 0.69 for ERK, indicating robust assay performance. […]"}, "[2]": {"tested_on": "Stat1 and ERK phosphorylation", "assay": "Titration of four screening hits in Jurkat cells using six-sample FCB (pStat1, pERK)", "details": "30 min before IFN-γ (10 ng/ml) and anti-CD3/28 (5 μg/ml each)", "protocol": "FIG. 8. Detailed titration of four hits from Jurkat drug screening experiment (FIG. 5). a) Four compounds: Bay11-7082, Indirubin-3-monoxime, PP2, and ZM449829 were added to Jurkat cells at different concentrations for 30 min prior to stimulation with IFN-γ (10 ng/ml) and anti-CD3/28 (5 μg/ml each). The cells were fixed and permeabilized, then stained with pStat1 Ax647 and pERK Ax488 antibodies. Percent inhibition of phosphorylation was plotted against concentration of drugs and fitted with a logistic regression curve to obtain IC50 values. Numbers in the top right of each plot are the IC50 value in μM units. b) Lysates were prepared from the same cells used for phospho flow and analyzed by western blot with pStat1 and pERK antibodies. Drugs were applied at 20 μM (same concentration as initial screen) for western blot analysis.\nBecause a few of these hits were unexpected, we performed titration experiments using six-sample FCB on four of the compounds to validate the results (FIG. 8).\nWe calculated fold change of phosphorylation upon stimulation by dividing median fluorescence intensity (MFI) of stimulated samples by the MFI of unstimulated samples: FC=MFIstim/MFIunstim. For heat map analysis, FC was converted to log2 values to enhance visualization and so that samples showing no change have a value of zero. To measure drug activity, we calculated percent inhibition as follows: Percent Inhibition=1−((MFItreated ? MFIunstim)/(MFIstim ? MFIunstim)), where “treated” denotes drug treated (and stimulated) samples, “stim” denotes control stimulated (non drug treated) samples, and “unstim” denotes control unstimulated (non drug treated) samples. We calculated Z′-factor from control stimulated and unstimulated samples by the following: Z′-factor=1 ? ((3[…]SDstim 3[…]SDunstim)/(meanstim ? meanunstim)), where “SD” denotes standard deviation of the mean, and “mean” denotes the mean of either stimulated or unstimulated MFI values. Z′-factor is an indication of the robustness and suitability of an assay for high throughput screening, with values from 0.5 to 1 indicating an excellent assay, 0 to 0.5 indicating a usable assay, and less than 0 indicating the assay has too much noise or inadequate dynamic range."}, "[3]": {"tested_on": "ERK phosphorylation", "assay": "96-well FCB drug screen in Jurkat cells: T-cell receptor-mediated ERK phosphorylation", "details": "20 μM, 45 min before stimulation with anti-CD3, anti-CD28 and IFN-γ for 5 min", "protocol": "as §1, §2"}}, "data": [{"smiles": "Cc1ccc(S(=O)(=O)/C=C/C#N)cc1", "note": "[Bay11-7082]", "values": [{"measurement": "inhibition of Stat1 phosphorylation", "setting": "[1]", "value": "inhibited Stat1 phosphorylation potently"}, {"measurement": "selectivity between ERK and Stat1 phosphorylation", "setting": "[2]", "value": "little selectivity"}, {"measurement": "inhibition of ERK phosphorylation", "setting": "[3]", "value": 50, "unit": "%"}]}]}
